According to patent US11555006B2, “Elucidation of novel 13-series resolvins that increase with atorvastatin and clear infections” (The Brigham and Women's Hospital, Inc., priority 2015, dated 2023):

How the values were obtained:
[1] = system: human macrophages; assay: Human macrophage phagocytosis, ROS and efferocytosis; type: cell-based; conditions: for In vitro: human macrophage efferocytosis of apoptotic neutrophils: summary table of bioactions; for In vitro: human macrophage and neutrophil intra-phagolysosomal ROS production / In vitro: human macrophage and neutrophil phagocytosis of E. coli: summary table, macrophages and neutrophils
Experimental: Macrophages were prepared from peripheral blood mononuclear cells (PBMC) purchased from Children's Hospital Blood Bank, Boston, and phagocytosis was assessed as in^31. Briefly, macrophages (5×10^4 cells/well) were incubated with RvT1 (1 pM-10 nM), 1:1 mixture RvT2 and RvT3 (1 pM-10 nM), RvT4 (1 pM-10 nM) or vehicle (0.1% EtOH in DPBS) for 15 min at 37° C., then fluorescent labeled apoptotic cells were added and cells incubated 45 min at 37° C. Extracellular fluorescence was quenched using Trypan blue (1:15 dilution) and phagocytosis assessed using an M3 SpectraMax plate reader (Molecular Devices). In select experiments, macrophages (prepared as detailed above, 5×10^4 cells/well) or neutrophils (1×10^5 cells/well), obtained from human healthy volunteers and isolated as in ^31 in accordance with Partners Human Research Committee Protocol (number 1999P001297), were incubated with H2DCFDA (5 μM, 30 min, 37° C.), excess dye was washed off and cells incubated with RvT1 (1 pM-10 nM), 1:1 mixture RvT2 and RvT3 (1 pM-10 nM), RvT4 (1 pM-10 nM) or vehicle (0.1% EtOH in DPBS, 15 min, 37° C.), then incubated with E. coli (1:50 leukocytes to E. coli, 45 min, 37° C.). Intracellular reactive oxygen species were determined by measuring fluorescence using an M3 SpectraMax plate reader. To assess bacterial phagocytosis, macrophages (5×10^4 cells/well) or neutrophils (1×10^5 cells/well) were incubated with RvT1 (1 pM-10 nM), 1:1 mixture RvT2 and RvT3 (1 pM-10 nM), RvT4 (1 pM-10 nM) or vehicle (0.1% EtOH in DPBS, 15 min, 37° C.), then incubated with BacLight Green (Molecular Probes) labeled E. coli (1:50 leukocytes to E. coli, 45 min, 37° C.). Extracellular fluorescence was then quenched using Trypan blue (1:15 dilution), and phagocytosis was assessed using an M3 SpectraMax plate reader.

[2] = system: human macrophages; assay: Human macrophage caspase 1, IL-1β and lactate dehydrogenase; type: cell-based; conditions: summary table of bioactions
Experimental: Human macrophages (1.5×10^4 cells/well) were incubated with RvT1 (10 pM-10 nM), 1:1 mixture RvT2 and RvT3 (10 pM-10 nM), RvT4 (10 pM-10 nM) or vehicle (0.1% EtOH in DPBS, 15 min, 37° C.), then E. coli (7.5×10^5 cells/well, in DPBS, 16 h, 37° C.). Caspase 1 levels were assessed in macrophages by flow cytometry after cell fixing and permeabilization, staining with an anti-caspase 1 (Abcam; 4° C., 30 min) and anti-rabbit-Alexa 488 conjugated antibody (Molecular Probes; 4° C., 30 min). IL-1β levels were determined in cell-free supernatants using an anti-human IL-1β ELISA (eBiosciences) following manufacturer's instructions. Lactate dehydrogenase activity was measured in cell-free supernatants assessing the formation of NADH from NAD+ using a Lactate Dehydrogenase Assay kit (Sigma) following manufacturer's instructions.

[3] = system: E. coli infections in mice; assay: E. coli peritonitis in mice; type: in vivo; conditions: for In vivo: circulating platelet-leukocyte aggregates / In vivo: exudate pro-inflammatory eicosanoid levels during infections / In vivo: infection induced hypothermia / In vivo: macrophage efferocytosis of apoptotic neutrophils / In vivo: murine leukocyte phagocytosis of E. coli / In vivo: neutrophil recruitment during infections / In vivo: protective actions of atorvastatin in infections / In vivo: pyroptosis: summary table of bioactions
Experimental: All animal experiments were conducted in accordance with the Harvard Medical Area Standing Committee on Animals (protocol no. 02570). Mice (male FvB, 6-8 weeks old, Charles River, fed lab diet containing essential fatty acids as from supplier) were anesthetized with isoflurane and microbial peritonitis initiated. Briefly, test compounds or vehicle were injected i.p. or i.v. 5 min prior to live E. coli (serotype 06:K2:H1; 1×10^5 or 1×10^7 CFU/mouse). At designated time intervals mice were harvested, blood was collected via cardiac puncture in heparin, and peritoneal exudates were collected in 4 ml of PBS. The cellular composition in the exudates was determined using Turks solution and light microscopy, and by flow cytometry. For flow cytometry, exudate cells were incubated with anti-mouse CD16/CD32 (eBiosciences, 20 min, 4° C., in PBS containing 5% fetal calf serum-staining solution), followed by incubation with FITC-conjugated anti-mouse Ly6G antibody (clone: 1A8, eBiosciences), PE-conjugated anti-mouse F4/80 antibody (clone:BM8, eBiosciences) and PerCP-Cy5.5-conjugated anti-mouse CD11b antibody (clone:M1/70, eBiosciences) for 30 min (4° C., in staining solution). To assess bacterial phagocytosis in peritoneal exudate leukocytes, exudate cells were incubated with PerCP-Cy5.5-conjugated anti-mouse CD11b antibody (30 min, 4° C., in staining solution), then fixed and permeabilized using BD Perm/Wash™ Buffer (BD Biosciences) following manufacturer's instructions and incubated with FITC-conjugated anti-E. coli antibody (GenTex, 30 min, 4° C., in BD Perm/Wash™ Buffer). Efferocytosis in infectious exudates was assessed by incubating exudate leukocytes with PE-conjugated anti-mouse F4/80 antibody (30 min, 4° C., in staining solution), then fixed and permeabilized using BD Perm/Wash™ Buffer (BD Biosciences) and incubated with FITC-conjugated anti-mouse Ly6G antibody (30 min, 4° C., in BD Perm/Wash™ Buffer). Body temperatures were assessed using an Infrared thermometer (Fluke). Bacterial counts in peripheral blood and inflammatory exudates were determined by overnight cultures (37° C.) of serially diluted samples on LB agar plates. Caspase 1 levels were assessed by incubation of exudate cells with PerCP-Cy5.5-conjugated anti-mouse CD11b antibody (30 min, 4° C., in staining solution), then fixed and permeabilized using BD Perm/Wash™ Buffer (BD Biosciences), incubated with anti-caspase 1 antibody (Abcam, 30 min, 4° C., in BD Perm/Wash™ Buffer) followed by anti-rabbit Alexa 488 conjugated antibody (Life Technologies, 30 min, 4° C., in BD Perm/Wash™ Buffer). IL-1β levels were determined in cell-free supernatants using an anti-mouse IL-1β ELISA (Abcam) following manufacturer's instructions. Lactate dehydrogenase activity was measured in cell-free supernatants assessing the formation of NADH from NAD+ using a Lactate Dehydrogenase Assay kit (Sigma) following manufacturer's instructions.
In select experiments resolution indices were calculated as in ^27. Ψmax, maximal PMN numbers in exudates; Tmax, time point when PMN numbers reach maximum; R50, 50% of maximal PMN numbers; T50, time point when PMN numbers reduce to 50% of maximum; Ri (resolution interval), T50-Tmax, time period when 50% PMN are lost from the exudates. To assess the proresolving actions of the test products, these were administered 12 h after E. coli (10^5 CFU) inoculation, and resolution indices were assessed.
For some experiments, mice were administered via i.p. injection RvT1, RvT2, RvT3 and RvT4 (that were isolated as detailed below and combined as a mixture at a ratio of 2:1:1:8 respectively) 2 h after E. coli inoculation. Blood and lungs were harvested 6 h after E. Coli inoculation. Blood was employed to determine peripheral blood eicosanoid levels as detailed below.

[4] = system: nitric oxide synthase; assay: L-NAME and atorvastatin in E. coli inoculated mice, plasma RvT; type: in vivo
Experimental: In a separate set of experiments, mice were inoculated with E. coli; after 60 min they were given L-NAME (24 mg/kg) and 5 min later atorvastatin (5 μg) via i.v. injection. Plasma was obtained after 5 h via cardiac puncture and LM levels were investigated by lipid mediator metabololipidomics. For all animal experiments mice were randomized to vehicle or treatment groups without blinding.

[5] = system: human neutrophil-endothelial cell co-incubations; assay: Lipid mediator levels in human endothelial cell incubations and neutrophil-endothelial cell co-incubations; type: cell-based; conditions: atorvastatin 0.03-30 μM
Experimental: Prior to sample extraction, deuterated internal standards (d4-PGE2, d5-LXA4, d4-RvD2, d4-LTB4 and d8-5S-HETE) representing regions of interest in the chromatographic analysis (500 pg each) were added to facilitate quantification. Extracted samples were analyzed by a LC-MS-MS system, Qtrap 6500 (AB Sciex) equipped with a Shimadzu SIL-20AC autoinjector and LC-20AD binary pump (Shimadzu Corp.). An Agilent Eclipse Plus C18 column (100×4.6 mm×1.8 μm) was used with a gradient of methanol/water/acetic acid of 55:45:0.01 (vol:vol:vol) that was ramped to 85:15:0.01 (vol:vol:vol) over 10 min and then to 98:2:0.01 (vol:vol:vol) for the next 8 min. This was subsequently maintained at 98:2:0.01 (vol:vol:vol) for 2 min. The flow rate was maintained at 0.4 ml/min. To monitor and quantify the levels of lipid mediators, a multiple reaction monitoring (MRM) method was developed with signature ion fragments (m/z) for each molecule monitoring the parent ion (Q1) and a characteristic daughter ion (Q3). […] Calibration curves were determined using a mixture of lipid mediators obtained via total organic synthesis, where these lipid mediators were not available (RvT1, RvT2, RvT3, RvT4 and 13-HDPA); known mediators with similar chromatographic properties (RvD2 for RvT1, RvD1 for RvT2 and RvT3; RvD5 for RvT4; 13-HDHA for 13-HDPA) were used. […]

7,8,13-trihydroxy-docosapentaenoic [RvT2]
In vitro: human macrophage efferocytosis of apoptotic neutrophils [1]: Stimulates human | In vitro: human macrophage and neutrophil intra-phagolysosomal ROS production [1]: Stimulates human | In vitro: human macrophage and neutrophil phagocytosis of E. coli [1]: Stimulates human | In vitro: E. coli induced inflammasome components in human macrophages [2]: Reduces E. coli induced | In vitro: E. coli induced macrophage pyroptosis [2]: Reduces E. coli induced | In vivo: circulating platelet-leukocyte aggregates [3]: Reduces circulating platelet - | In vivo: exudate pro-inflammatory eicosanoid levels during infections [3]: Reduces exudate pro- | In vivo: infection induced hypothermia [3]: Protects against infection | In vivo: macrophage efferocytosis of apoptotic neutrophils [3]: Stimulates macrophage | In vivo: murine leukocyte phagocytosis of E. coli [3]: Stimulates murine leukocyte | In vivo: neutrophil recruitment during infections [3]: Limits neutrophil recruitment | In vivo: protective actions of atorvastatin in infections [3]: Elaborates the protective | In vivo: pyroptosis [3]: Reduces pyroptosis

COC(=O)[C@@H](N)CCCNC(=N)N[N+](=O)[O-] [L-NAME, L-NG-Nitroarginine Methyl Ester]
atorvastatin-mediated increases in plasma RvT ([4]; L-NAME 24 mg/kg prior to atorvastatin 5 μg/mouse i.v., E. coli 1×10^5 CFU/mouse): significantly reversed | neutrophil recruitment to the peritoneum ([4]; L-NAME prior to atorvastatin during mouse infections): increased

CCC=CCC=CC=CC(O)C(O)C=CC=CC(O)CCCCCC(=O)O (centres unmarked) [RvT3, 7,12,13-trihydroxy-docosapentaenoic acid]
In vitro: human macrophage efferocytosis of apoptotic neutrophils [1]: Stimulates human | In vitro: human macrophage and neutrophil intra-phagolysosomal ROS production [1]: Stimulates human | In vitro: human macrophage and neutrophil phagocytosis of E. coli [1]: Stimulates human | In vitro: E. coli induced inflammasome components in human macrophages [2]: Reduces E. coli induced | In vitro: E. coli induced macrophage pyroptosis [2]: Reduces E. coli induced | In vivo: circulating platelet-leukocyte aggregates [3]: Reduces circulating platelet- | In vivo: exudate pro-inflammatory eicosanoid levels during infections [3]: Reduces exudate pro- | In vivo: infection induced hypothermia [3]: Protects against infection | In vivo: macrophage efferocytosis of apoptotic neutrophils [3]: Stimulates macrophage | In vivo: murine leukocyte phagocytosis of E. coli [3]: Stimulates murine leukocyte | In vivo: neutrophil recruitment during infections [3]: Limits neutrophil | In vivo: protective actions of atorvastatin in infections [3]: Elaborates the protective | In vivo: pyroptosis [3]: Reduces pyroptosis

CC/C=C\C/C=C\C=C\C(O)C/C=C\C=C\C(O)CCCCCC(=O)O (centres unmarked) [RvT4, 7,13-dihydroxy-docosapentaenoic acid]
In vitro: human macrophage efferocytosis of apoptotic neutrophils [1]: Stimulates human | In vitro: human macrophage and neutrophil intra-phagolysosomal ROS production [1]: Stimulates human | In vitro: human macrophage and neutrophil phagocytosis of E. coli [1]: Stimulates human | In vitro: E. coli induced inflammasome components in human macrophages [2]: Reduces E. coli induced | In vitro: E. coli induced macrophage pyroptosis [2]: Reduces E. coli induced | In vivo: circulating platelet-leukocyte aggregates [3]: Reduces circulating platelet- | In vivo: exudate pro-inflammatory eicosanoid levels during infections [3]: Reduces exudate pro- | In vivo: infection induced hypothermia [3]: Protects against infection | In vivo: macrophage efferocytosis of apoptotic neutrophils [3]: Stimulates macrophage | In vivo: murine leukocyte phagocytosis of E. coli [3]: Stimulates murine leukocyte | In vivo: neutrophil recruitment during infections [3]: Limits neutrophil recruitment | In vivo: protective actions of atorvastatin in infections [3]: Elaborates the protective | In vivo: pyroptosis [3]: Reduces pyroptosis

CC(C)c1c(C(=O)Nc2ccccc2)c(-c2ccccc2)c(-c2ccc(F)cc2)n1CC[C@@H](O)C[C@@H](O)CC(=O)O [atorvastatin]
RvT in neutrophil-endothelial cell co-cultures [5]: dose-dependent increases | PGI2 and 15-deoxy-Δ-12,14-PGJ2 ([3]; treatment 2 h after E. coli, blood 6 h after E. coli): increases | endothelin-1 and plasminogen activator inhibitor-1 ([3]; treatment 2 h after E. coli, lung mRNA 6 h after E. coli): reduced
